Assay results published in patent publication US20050260733A1, “Proteases and uses thereof” (WYETH, priority 2004, published 2005).

System: MAb AGG-C1
Experiment: Competitive inhibition ELISA validating the neoepitope specificity of MAb AGG-C1
Assay type: binding, mouse
Conditions: competitor 1.0-1000 nmol/ml, MAb AGG-C1 0.04 μg/ml, FIG. 5
Protocol: Streptavidin-coated microtiter plates (Pierce, Rockford, Ill.) were coated with N-terminally biotinylated peptide aggc1 (b-aggc1) by incubating each well with 100 μl of b-aggc1 (100 ng/ml) for 1 h at room temperature. After washing 4 times with phosphate-buffered saline containing 0.01% Tween-20 (PBS-Tween), wells were blocked for 1 h at room temperature with 100 μl of PBS-Tween containing 2% BSA, followed by 4 washes with PBS-Tween.
In order to validate the neoepitope nature of MAb AGG-C1, competition mixtures (100 μl) comprised of MAb AGG-C1 (0.04 μg/ml) and 1.0-1000 nmol/ml of the synthetic peptides GGLPLPRNITEGE (SEQ ID NO:22), GGLPLPRNITEGE ARGSVILTVK-CONH2 (SEQ ID NO:23), undigested aggrecan, or ADAMTS-4 digested aggrecan were preincubated for 1 h at room temperature. Mixtures were then transferred to b-aggc1 coated wells. After a further incubation for 1 h at room temperature, the plates were washed 4 times with PBS-Tween then incubated for 1 h at room temperature with 100 μl of peroxidase-conjugated secondary goat anti-mouse IgG (1:10,000). Following 4 final washes with PBS-Tween, the wells were incubated with TMB 1 component microwell peroxidase substrate (BioFX Laboratories, Owings Mills, Md.). Color development was terminated by the addition of 0.18 M H2SO4, and the absorbance was monitored spectrophotometrically at 450 nm.

Substance | competition for MAb AGG-C1 binding to biotinylated aggc1 peptide
ADAMTS4 digested aggrecan: Bovine aggrecan digested with ADAMTS-4, used as ELISA competitor | Dose-dependent competition
GGLPLPRNITEGE (listed as Homo sapiens) [Synthetic peptide whose C-terminus corresponds to E373 of aggrecan core protein] | Dose-dependent competition
GGPLPRNITEGEARGSVILTVK [Synthetic peptide spanning the aggrecanase cleavage site] | did not compete
undigested aggrecan: Intact bovine aggrecan, used as ELISA competitor | did not compete
